# Assay results published in patent US20150268223A1, “MICR[…]-CULTURE SYSTEMS AS INFECTIOUS DISEASE ANALYSIS PLATFORMS” (Massachusetts Institute of Technology, priority 2008, published 2015).
# Test system: retroviral pseudoparticles bearing the E1/E2 glycoproteins of the Hepatitis C virus (HCV) genotype 1a strain (H77)
# Format: cell-based
structure (smiles),measurement,value
O=C(O)CN(CCN(CC(=O)O)CC(=O)O)CC(=O)O [EDTA],access of micropatterned co-cultures to viral pseudoparticles and virus,dramatically improves access
